Experiments:
[1] = biological target: T1, Cyclin-G-associated kinase (Homo sapiens, UniProt O14976); assay: Selectivity interaction (Enzymatic assay) EUB0000608a GAK
[2] = biological target: Serine/threonine-protein kinase 33 (Homo sapiens, UniProt Q9BYT3); assay: Selectivity interaction (Enzymatic assay) EUB0000608a STK33
[3] = biological target: Serine/threonine-protein kinase PLK3 (Homo sapiens, UniProt Q9H4B4); assay: Selectivity interaction (Enzymatic assay) EUB0000608a PLK3
[4] = biological target: Serine/threonine-protein kinase PLK1 (Homo sapiens, UniProt P53350); assay: Selectivity interaction (Enzymatic assay) EUB0000608a PLK1
[5] = biological target: Serine/threonine-protein kinase PLK4 (Homo sapiens, UniProt O00444); assay: Selectivity interaction (Enzymatic assay) EUB0000608a PLK4
[6] = biological target: T2, Insulin-like growth factor 1 receptor (Homo sapiens, UniProt P08069); assay: Selectivity interaction (Enzymatic assay) EUB0000609a IGF1R
T2 sequence (P08069 31-736 limits assumed): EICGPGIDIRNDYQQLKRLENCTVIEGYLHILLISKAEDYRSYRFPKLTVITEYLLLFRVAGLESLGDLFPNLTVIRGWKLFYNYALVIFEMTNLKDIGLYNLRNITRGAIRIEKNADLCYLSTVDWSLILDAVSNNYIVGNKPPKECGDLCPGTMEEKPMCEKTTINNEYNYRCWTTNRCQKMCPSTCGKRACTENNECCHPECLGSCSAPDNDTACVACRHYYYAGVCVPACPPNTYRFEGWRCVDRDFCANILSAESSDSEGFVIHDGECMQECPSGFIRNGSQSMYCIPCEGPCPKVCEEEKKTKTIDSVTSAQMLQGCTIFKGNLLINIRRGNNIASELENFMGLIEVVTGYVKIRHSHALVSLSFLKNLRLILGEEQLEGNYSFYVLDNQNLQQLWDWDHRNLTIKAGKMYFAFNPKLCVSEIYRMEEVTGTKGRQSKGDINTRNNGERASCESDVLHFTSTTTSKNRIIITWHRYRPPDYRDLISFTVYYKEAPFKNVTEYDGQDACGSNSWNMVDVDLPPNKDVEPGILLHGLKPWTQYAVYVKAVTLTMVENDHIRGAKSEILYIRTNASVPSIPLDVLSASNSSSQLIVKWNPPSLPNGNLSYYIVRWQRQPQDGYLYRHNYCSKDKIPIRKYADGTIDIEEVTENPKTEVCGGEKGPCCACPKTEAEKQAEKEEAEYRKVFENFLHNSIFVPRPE
T2 sequence (P08069 741-1367 limits assumed): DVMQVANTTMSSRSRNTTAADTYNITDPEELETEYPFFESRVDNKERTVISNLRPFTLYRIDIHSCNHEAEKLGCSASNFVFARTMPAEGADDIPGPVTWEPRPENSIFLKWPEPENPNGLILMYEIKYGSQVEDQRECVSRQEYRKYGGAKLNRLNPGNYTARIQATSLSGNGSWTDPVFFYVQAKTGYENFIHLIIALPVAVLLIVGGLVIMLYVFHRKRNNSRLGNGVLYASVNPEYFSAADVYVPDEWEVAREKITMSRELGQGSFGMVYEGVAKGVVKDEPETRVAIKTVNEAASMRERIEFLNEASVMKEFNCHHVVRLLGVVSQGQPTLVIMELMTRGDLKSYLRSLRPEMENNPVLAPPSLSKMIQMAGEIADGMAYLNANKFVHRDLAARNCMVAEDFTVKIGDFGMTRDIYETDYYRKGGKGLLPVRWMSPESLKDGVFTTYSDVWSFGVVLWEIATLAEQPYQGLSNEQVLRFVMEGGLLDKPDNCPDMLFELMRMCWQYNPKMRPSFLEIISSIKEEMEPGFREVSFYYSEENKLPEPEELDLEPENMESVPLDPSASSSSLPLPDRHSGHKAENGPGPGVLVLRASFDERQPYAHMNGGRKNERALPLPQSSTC

[7] = biological target: T3, Mitogen-activated protein kinase 1 (Homo sapiens, UniProt P28482); assay: Selectivity interaction (Ambit kinase binding assay panel) EUB0000609a MAPK1; conditions: at 10 µM
T3 sequence (P28482 whole entry): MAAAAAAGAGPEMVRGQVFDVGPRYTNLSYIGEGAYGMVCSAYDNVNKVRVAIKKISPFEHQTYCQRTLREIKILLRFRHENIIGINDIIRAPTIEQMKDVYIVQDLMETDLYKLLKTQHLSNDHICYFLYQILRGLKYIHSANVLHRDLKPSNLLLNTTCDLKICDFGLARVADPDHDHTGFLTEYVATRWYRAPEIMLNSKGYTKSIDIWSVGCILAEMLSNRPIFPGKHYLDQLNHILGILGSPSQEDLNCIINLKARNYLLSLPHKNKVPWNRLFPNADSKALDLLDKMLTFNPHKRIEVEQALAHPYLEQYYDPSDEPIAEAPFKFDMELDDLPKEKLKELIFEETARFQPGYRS

[8] = biological target: T4, Insulin receptor-related protein (Homo sapiens, UniProt P14616); assay: Selectivity interaction (Ambit kinase binding assay panel) EUB0000609a INSRR; conditions: at 10 µM
T4 sequence (P14616 27-742 limits assumed): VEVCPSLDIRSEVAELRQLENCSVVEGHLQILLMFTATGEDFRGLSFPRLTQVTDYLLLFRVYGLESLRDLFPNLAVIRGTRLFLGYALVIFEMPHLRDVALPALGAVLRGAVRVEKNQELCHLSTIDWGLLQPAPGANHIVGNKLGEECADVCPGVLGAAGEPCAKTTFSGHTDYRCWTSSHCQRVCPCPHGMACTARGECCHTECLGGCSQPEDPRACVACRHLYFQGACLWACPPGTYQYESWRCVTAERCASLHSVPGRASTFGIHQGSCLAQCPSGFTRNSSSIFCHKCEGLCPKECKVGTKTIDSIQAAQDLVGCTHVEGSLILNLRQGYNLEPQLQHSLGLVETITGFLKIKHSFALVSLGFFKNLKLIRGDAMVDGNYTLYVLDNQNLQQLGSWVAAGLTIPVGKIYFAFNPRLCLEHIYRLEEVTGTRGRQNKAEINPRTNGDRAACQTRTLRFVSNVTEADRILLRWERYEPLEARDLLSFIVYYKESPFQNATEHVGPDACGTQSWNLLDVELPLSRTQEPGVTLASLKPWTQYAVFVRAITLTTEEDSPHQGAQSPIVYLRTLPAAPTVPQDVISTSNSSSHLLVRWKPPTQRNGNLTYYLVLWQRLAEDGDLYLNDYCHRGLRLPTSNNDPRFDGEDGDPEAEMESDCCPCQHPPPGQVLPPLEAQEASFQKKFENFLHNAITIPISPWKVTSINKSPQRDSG
T4 sequence (P14616 747-1297 limits assumed): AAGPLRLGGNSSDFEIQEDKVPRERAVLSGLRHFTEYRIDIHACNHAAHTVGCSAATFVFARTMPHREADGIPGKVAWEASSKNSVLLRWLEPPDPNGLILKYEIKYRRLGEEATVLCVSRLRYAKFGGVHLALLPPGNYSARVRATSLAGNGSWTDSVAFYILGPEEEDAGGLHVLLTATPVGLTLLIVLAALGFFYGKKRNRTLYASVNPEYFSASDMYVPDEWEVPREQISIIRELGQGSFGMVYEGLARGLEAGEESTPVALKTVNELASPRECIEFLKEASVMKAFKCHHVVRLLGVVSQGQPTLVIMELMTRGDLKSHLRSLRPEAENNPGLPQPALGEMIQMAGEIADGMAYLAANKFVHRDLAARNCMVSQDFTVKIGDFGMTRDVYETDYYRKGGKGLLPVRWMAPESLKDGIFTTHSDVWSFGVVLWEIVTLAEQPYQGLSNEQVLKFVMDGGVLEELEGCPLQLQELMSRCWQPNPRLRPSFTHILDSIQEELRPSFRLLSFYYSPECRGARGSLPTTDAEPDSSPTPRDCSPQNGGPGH

[9] = biological target: Serine/threonine-protein kinase N2 (Homo sapiens) (UniProt Q16513); assay: Selectivity interaction (Ambit kinase binding assay panel) EUB0000609a PKN2; conditions: at 10 µM
[10] = biological target: T5, ALK tyrosine kinase receptor (Homo sapiens, UniProt Q9UM73); assay: Selectivity interaction (Ambit kinase binding assay panel) EUB0000609a ALK; conditions: at 10 µM
[11] = biological target: T4, Insulin receptor-related protein; assay: Selectivity interaction (Enzymatic assay) EUB0000609a INSRR
[12] = biological target: T2, Insulin-like growth factor 1 receptor; assay: Selectivity interaction (Ambit kinase binding assay panel) EUB0000609a IGF1R; conditions: at 10 µM
[13] = biological target: Serine/threonine-protein kinase RIO3 (Homo sapiens) (UniProt O14730); assay: Selectivity interaction (Ambit kinase binding assay panel) EUB0000609a RIOK3; conditions: at 10 µM
[14] = biological target: T6, Dual specificity protein kinase CLK1 (Homo sapiens, UniProt P49759); assay: Selectivity interaction (Ambit kinase binding assay panel) EUB0000609a CLK1; conditions: at 10 µM
[15] = biological target: T7, Leukocyte tyrosine kinase receptor (Homo sapiens, UniProt P29376); assay: Selectivity interaction (Enzymatic assay) EUB0000609a LTK
[16] = biological target: T3, Mitogen-activated protein kinase 1; assay: Selectivity interaction (Enzymatic assay) EUB0000609a MAPK1
[17] = biological target: Dual specificity mitogen-activated protein kinase kinase 4 (Homo sapiens) (UniProt P45985); assay: Selectivity interaction (Ambit kinase binding assay panel) EUB0000609a MAP2K4; conditions: at 10 µM
[18] = biological target: T1, Cyclin-G-associated kinase; assay: Selectivity interaction (Enzymatic assay) EUB0000609a GAK
[19] = biological target: T8, Cyclin-G-associated kinase (Homo sapiens) (UniProt O14976); assay: Selectivity interaction (Ambit kinase binding assay panel) EUB0000609a GAK; conditions: at 10 µM
T8 sequence (whole entry): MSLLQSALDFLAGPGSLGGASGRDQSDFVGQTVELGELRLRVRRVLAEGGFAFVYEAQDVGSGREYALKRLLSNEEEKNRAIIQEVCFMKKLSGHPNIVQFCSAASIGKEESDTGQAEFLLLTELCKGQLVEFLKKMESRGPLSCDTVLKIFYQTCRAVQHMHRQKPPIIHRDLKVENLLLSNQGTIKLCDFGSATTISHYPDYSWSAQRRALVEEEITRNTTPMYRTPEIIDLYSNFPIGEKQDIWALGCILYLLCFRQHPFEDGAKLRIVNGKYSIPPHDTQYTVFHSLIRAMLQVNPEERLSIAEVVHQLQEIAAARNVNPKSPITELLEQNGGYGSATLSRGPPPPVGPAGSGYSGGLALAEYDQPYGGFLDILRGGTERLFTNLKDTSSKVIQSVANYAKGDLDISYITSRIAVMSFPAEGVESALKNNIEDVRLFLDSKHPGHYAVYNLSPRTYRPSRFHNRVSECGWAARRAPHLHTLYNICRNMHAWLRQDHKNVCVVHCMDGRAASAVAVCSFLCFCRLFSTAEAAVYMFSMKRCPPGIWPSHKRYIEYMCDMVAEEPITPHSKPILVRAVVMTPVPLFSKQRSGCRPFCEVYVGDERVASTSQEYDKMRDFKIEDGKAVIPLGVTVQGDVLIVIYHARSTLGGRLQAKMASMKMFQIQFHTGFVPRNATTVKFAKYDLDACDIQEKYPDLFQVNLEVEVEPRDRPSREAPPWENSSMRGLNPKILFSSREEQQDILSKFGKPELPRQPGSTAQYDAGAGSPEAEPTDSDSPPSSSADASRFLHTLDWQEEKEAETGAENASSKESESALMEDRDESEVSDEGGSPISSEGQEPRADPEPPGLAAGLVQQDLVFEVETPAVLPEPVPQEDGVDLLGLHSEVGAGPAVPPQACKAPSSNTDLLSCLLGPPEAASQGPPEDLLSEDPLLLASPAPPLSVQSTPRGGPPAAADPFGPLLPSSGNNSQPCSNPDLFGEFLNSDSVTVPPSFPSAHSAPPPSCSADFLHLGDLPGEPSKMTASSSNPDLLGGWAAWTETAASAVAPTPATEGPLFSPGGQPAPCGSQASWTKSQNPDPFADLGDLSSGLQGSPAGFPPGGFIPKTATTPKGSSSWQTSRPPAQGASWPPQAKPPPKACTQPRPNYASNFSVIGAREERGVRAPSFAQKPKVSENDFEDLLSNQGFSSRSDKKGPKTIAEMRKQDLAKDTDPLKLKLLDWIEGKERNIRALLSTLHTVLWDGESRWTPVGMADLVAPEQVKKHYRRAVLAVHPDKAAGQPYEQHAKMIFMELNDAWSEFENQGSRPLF

[20] = biological target: Non-receptor tyrosine-protein kinase TNK1 (Homo sapiens, UniProt Q13470); assay: Selectivity interaction (Enzymatic assay) EUB0000609a TNK1
Non-receptor tyrosine-protein kinase TNK1, sequence (Q13470 whole entry): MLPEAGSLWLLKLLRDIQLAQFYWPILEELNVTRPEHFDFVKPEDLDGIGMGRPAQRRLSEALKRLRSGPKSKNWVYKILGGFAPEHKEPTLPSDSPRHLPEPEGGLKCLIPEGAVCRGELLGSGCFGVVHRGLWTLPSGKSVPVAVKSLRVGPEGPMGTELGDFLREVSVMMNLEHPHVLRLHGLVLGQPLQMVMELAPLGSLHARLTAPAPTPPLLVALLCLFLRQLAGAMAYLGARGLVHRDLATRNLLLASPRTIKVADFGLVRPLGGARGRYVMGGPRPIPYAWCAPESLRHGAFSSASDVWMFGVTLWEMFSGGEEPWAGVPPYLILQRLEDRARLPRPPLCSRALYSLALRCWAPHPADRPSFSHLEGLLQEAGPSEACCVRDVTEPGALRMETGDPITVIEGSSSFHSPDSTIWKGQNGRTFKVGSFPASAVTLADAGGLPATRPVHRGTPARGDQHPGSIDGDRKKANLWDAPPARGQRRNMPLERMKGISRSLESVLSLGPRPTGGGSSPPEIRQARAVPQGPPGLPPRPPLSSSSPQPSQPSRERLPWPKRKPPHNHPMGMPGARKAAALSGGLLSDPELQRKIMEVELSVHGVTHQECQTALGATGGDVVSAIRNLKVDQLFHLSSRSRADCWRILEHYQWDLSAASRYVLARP

[21] = biological target: T6, Dual specificity protein kinase CLK1; assay: Selectivity interaction (Enzymatic assay) EUB0000609a CLK1
[22] = biological target: T9, Protein-tyrosine kinase 2-beta (Homo sapiens, UniProt Q14289); assay: Selectivity interaction (Ambit kinase binding assay panel) EUB0000609a PTK2B; conditions: at 10 µM
Insulin receptor [23] = biological target: T10, Insulin receptor (Homo sapiens, UniProt P06213); assay: Selectivity interaction (Enzymatic assay) EUB0000609a INSR
T10 sequence (P06213 28-758 limits assumed): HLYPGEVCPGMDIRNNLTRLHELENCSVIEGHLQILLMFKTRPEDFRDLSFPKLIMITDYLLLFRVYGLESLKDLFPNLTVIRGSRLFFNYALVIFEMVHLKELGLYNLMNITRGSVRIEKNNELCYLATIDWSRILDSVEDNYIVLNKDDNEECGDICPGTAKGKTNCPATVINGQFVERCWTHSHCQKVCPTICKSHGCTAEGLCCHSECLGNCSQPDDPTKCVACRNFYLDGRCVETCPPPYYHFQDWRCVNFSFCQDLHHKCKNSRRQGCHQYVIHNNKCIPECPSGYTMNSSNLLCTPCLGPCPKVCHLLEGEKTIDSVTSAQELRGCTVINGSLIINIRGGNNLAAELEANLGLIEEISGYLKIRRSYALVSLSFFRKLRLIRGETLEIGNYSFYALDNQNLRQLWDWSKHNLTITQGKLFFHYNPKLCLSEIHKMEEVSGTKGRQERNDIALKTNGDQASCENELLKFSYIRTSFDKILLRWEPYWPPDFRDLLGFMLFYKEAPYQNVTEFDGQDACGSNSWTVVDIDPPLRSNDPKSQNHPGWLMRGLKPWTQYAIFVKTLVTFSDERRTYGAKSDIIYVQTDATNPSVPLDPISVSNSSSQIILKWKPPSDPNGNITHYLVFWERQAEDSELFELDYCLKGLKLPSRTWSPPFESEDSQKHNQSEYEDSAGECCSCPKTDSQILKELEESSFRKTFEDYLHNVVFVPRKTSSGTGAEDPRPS
T10 sequence (P06213 763-1382 limits assumed): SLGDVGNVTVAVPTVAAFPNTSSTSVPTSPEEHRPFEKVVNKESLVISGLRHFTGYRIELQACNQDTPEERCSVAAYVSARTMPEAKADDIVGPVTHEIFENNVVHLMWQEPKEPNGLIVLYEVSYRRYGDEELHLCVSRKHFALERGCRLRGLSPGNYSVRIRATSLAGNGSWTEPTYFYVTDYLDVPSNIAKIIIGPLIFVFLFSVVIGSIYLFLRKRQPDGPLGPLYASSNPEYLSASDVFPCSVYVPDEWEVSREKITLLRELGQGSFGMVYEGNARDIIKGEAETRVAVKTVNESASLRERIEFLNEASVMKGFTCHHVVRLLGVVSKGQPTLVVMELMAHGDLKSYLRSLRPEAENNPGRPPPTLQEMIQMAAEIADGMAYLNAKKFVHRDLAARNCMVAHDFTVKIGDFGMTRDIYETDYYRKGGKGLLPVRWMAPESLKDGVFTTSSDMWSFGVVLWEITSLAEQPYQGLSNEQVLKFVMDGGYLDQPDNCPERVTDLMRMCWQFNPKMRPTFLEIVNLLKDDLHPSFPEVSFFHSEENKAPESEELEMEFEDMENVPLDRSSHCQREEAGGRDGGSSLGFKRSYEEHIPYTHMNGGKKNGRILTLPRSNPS

Activated CDC42 kinase 1 = Activated CDC42 kinase 1 (Homo sapiens, UniProt Q07912); assay: Selectivity interaction (Enzymatic assay) EUB0000609a TNK2
Insulin receptor [24] = biological target: T10, Insulin receptor; assay: Selectivity interaction (Ambit kinase binding assay panel) EUB0000609a INSR; conditions: at 10 µM
[25] = biological target: T9, Protein-tyrosine kinase 2-beta; assay: Selectivity interaction (Enzymatic assay) EUB0000609a PTK2B
[26] = biological target: T5, ALK tyrosine kinase receptor; assay: Selectivity interaction (Enzymatic assay) EUB0000609a ALK
[27] = biological target: T7, Leukocyte tyrosine kinase receptor; assay: Selectivity interaction (Ambit kinase binding assay panel) EUB0000609a LTK; conditions: at 10 µM
[28] = biological target: Mitogen-activated protein kinase 8 (Homo sapiens, UniProt P45983); assay: Selectivity interaction (Ambit kinase binding assay panel) EUB0000609a MAPK8; conditions: at 10 µM
Focal adhesion kinase 1 = Focal adhesion kinase 1 (Homo sapiens, UniProt Q05397); assay: Selectivity interaction (Enzymatic assay) EUB0000609a PTK2

Q: Which IC50 [1] does the source give for `CCOc1cc(N2CCC(O)CC2)ccc1Nc1ncc2c(n1)N(C1CCCC1)CCC(=O)N2C` here?
A: The IC50 was 140 nM.

Q: And the IC50 [2]?
A: The IC50 was 5000 nM.

Q: What about the IC50 [3] of the same molecule?
A: Its IC50 is 1600 nM.

Q: And the IC50 [4]?
A: The IC50 was 61 nM.

Q: And the IC50 [5]?
A: The IC50 was 3100 nM.

Q: How did the IC50 [6] turn out when `COc1cc(N2CCC(O)CC2)ccc1Nc1cc(Nc2ccccc2S(=O)(=O)C(C)C)c2cc[nH]c2n1` was run?
A: The IC50 was 750 nM.

Q: And the % of control [7]?
A: The % of control was 6%.

Q: And the % of control [8]?
A: The % of control was 2%.

Q: What about the % of control [9] of the same molecule?
A: The % of control was 0.1%.

Q: And the % of control [10]?
A: The % of control was 8.9%.

Q: And the IC50 [11]?
A: The IC50 was 1200 nM.

Q: What about the % of control [12] of the same molecule?
A: The % of control was 0.9%.

Q: What about the % of control [13] of the same molecule?
A: The % of control was 0.5%.

Q: And the % of control [14]?
A: The % of control was 7.3%.

Q: And the IC50 [15]?
A: Its IC50 is 29 nM.

Q: What about the IC50 [16] of the same molecule?
A: The IC50 was 2900 nM.

Q: And the % of control [17]?
A: The % of control was 6.2%.

Q: And the IC50 [18]?
A: The IC50 was 1100 nM.

Q: And the % of control [19]?
A: Its % of control is 5.4%.

Q: What about the IC50 [20] of the same molecule?
A: The IC50 was 2600 nM.

Q: What about the IC50 [21] of the same molecule?
A: The IC50 was 1900 nM.

Q: And the % of control [22]?
A: The % of control was 0.5%.

Q: And the IC50 (Insulin receptor [23])?
A: The IC50 was 470 nM.

Q: What about the IC50 (Activated CDC42 kinase 1) of the same molecule?
A: The IC50 was 3100 nM.

Q: What about the % of control (Insulin receptor [24]) of the same molecule?
A: The % of control was 0.15%.

Q: What about the IC50 [25] of the same molecule?
A: Its IC50 is 280 nM.

Q: What about the IC50 [26] of the same molecule?
A: The IC50 was 21 nM.

Q: And the % of control [27]?
A: The % of control was 1.2%.

Q: And the % of control [28]?
A: Its % of control is 5.2%.

Q: What about the IC50 (Focal adhesion kinase 1) of the same molecule?
A: The IC50 was 440 nM.

— ChEMBL document CHEMBL5212743, “Selectivity Literature for EUbOPEN Chemogenomics Library wave 3” (2023)
